Values after ≈ are worked out from the molar mass of the structure shown. Like-named read-outs stand apart in the source and are kept apart here.
Key:
Fusarium graminearum [1] = test: microbe, parasite or virus in culture; format: cell-based; details: for MIC: Fusarium graminearum, read-out: MIC (growth inhibition)
Rhodotorula pilimanae [2] = test: Disk diffusion growth inhibitory assay; format: cell-based; parameters: Relative Activity (zone of inhibition diameter): key: +++, considerable activity; ++, moderate activity; −−−, no activity
Rhodotorula pilimanae [3] = test: microbe, parasite or virus in culture; format: cell-based; details: Rhodotorula mucilaginosa
Fusarium oxysporum = test: Disk diffusion growth inhibitory assay; format: cell-based; parameters: key: +++, considerable activity; ++, moderate activity; −−−, no activity; details: PDA-CA medium
Microdochium nivale = format: cell-based; parameters: key to the marks not given beside the values; further: key: +++, considerable activity; ++, moderate activity; −−−, no activity
[4] = system: Azole-resistant Candida albicans ATCC 10231; test: Disk diffusion test for synergistic inhibition by itraconazole and K20; format: cell-based
Escherichia coli B = test: Bacterial MIC test in trypticase soy broth; format: cell-based; details: 35° C., 12-18 hrs
Procedure: (§1) For purposes of the experiments discussed in this paragraph, the MIC is defined as the lowest concentration of compound needed to inhibit the growth of bacteria. A solution of a selected bacterium was inoculated into trypticase soy broth (Difco, B D, Franklin Lakes, N.J., USA), at 35° C. and incubated for 1-2 hours. […] The 96-well plate was incubated at 35° C. for 12-18 hrs. The MIC tests were repeated at least three times.

Micrococcus luteus [5] = test: Bacterial MIC test in trypticase soy broth; format: cell-based; details: 35° C., 12-18 hrs
Procedure: as §1

Mucor haemalis = test: Disk diffusion growth inhibitory assay; format: cell-based; parameters: key: +++, considerable activity; ++, moderate activity; −−−, no activity; details: PDA-CA medium
Fusarium graminearum [6] = format: cell-based; details: disk diffusion, PDA-CA medium
[7] = system: Candida albicans ATCC 10231; test: Disk diffusion growth inhibitory assay; format: cell-based; parameters: key: +++, considerable activity; ++, moderate activity; −−−, no activity; details: PDA-CA medium
Ulocladium spp. = test: Disk diffusion growth inhibitory assay; format: cell-based; parameters: key: +++, considerable activity; ++, moderate activity; −−−, no activity; details: PDA-CA medium
[8] = system: Cladosporium cladosporioides; format: cell-based; parameters: key to the marks not given beside the values; further: key: +++, considerable activity; ++, moderate activity; −−−, no activity
[9] = system: Azole-resistant Candida albicans ATCC 10231; test: Microdilution checkerboard assay of K20 and azoles; format: cell-based; details: for MIC of azole in combination with K20: combined with K20; for Effect (drug interaction class by FICI) / FICI (Fractional Inhibitory Concentration Index): the row's azole combined with K20; for MIC: Candida albicans, ATCC10231, read-out: MIC, azole alone
[10] = system: Saccharomyces cerevisiae W303C; format: cell-based; parameters: key to the marks not given beside the values; further: key: +++, considerable activity; ++, moderate activity; −−−, no activity
Fusarium culmorum = format: cell-based; parameters: key to the marks not given beside the values; further: key: +++, considerable activity; ++, moderate activity; −−−, no activity
[11] = system: Azole-resistant Candida albicans ATCC 10231; test: Time-kill curves of itraconazole and K20; details: K20 alone, 32 μg mL^−1
Procedure: Method: Strain Candida albicans ATCC 10231 was prepared at an inoculum size of 10^5 c.f.u. mL^−1 in PDB-CA medium. The drug concentrations used were 32 μg mL^−1 for K20 and 0.18 μg mL^−1 for itraconazole. At designated times (0, 3, 6, 9, 24 and 48 h after incubation), 100 μL aliquots were removed from each solution and serially diluted 10-fold in sterile water. One hundred μL volumes of each dilution were streaked on agar surfaces of potato dextrose agar plates to allow growth. Colony counts were determined after incubation for 48 h. The experiment was performed triplicate.

Rhizopus stolonifer = test: Disk diffusion growth inhibitory assay; format: cell-based; parameters: key: +++, considerable activity; ++, moderate activity; −−−, no activity; details: PDA-CA medium
Penicillium spp = format: cell-based; parameters: key to the marks not given beside the values; further: key: +++, considerable activity; ++, moderate activity; −−−, no activity
[12] = system: Chinese Hamster Ovary (CHO) cells (line 1-15); format: cell-based; details: 3.7 μg mL^−1
Procedure: Method: […] The cells were transferred into sterile 50 mL Falcon conical plastic tubes containing 10 mL of the medium at a cell density of 2.5×10^5 cells mL^-1. […] The suspensions were incubated with continuous agitation for 48 h at 37° C. with 5% CO2 in a humidified incubator. After 24 and 48 h, lmL portions of the cell culture suspensions (drug treated or untreated) were transferred to Beckman Coulter Vi-Cell XR cups and mixed with Trypan Blue to determine cell counts and viability in a Beckman Coulter Vi-Cell counter.

[13] = system: Staphylococcus aureus ATCC 6538; test: Disk diffusion growth inhibitory assay; format: cell-based; parameters: key to the marks not given beside the values; details: PDA-CA medium
Micrococcus luteus [14] = test: Disk diffusion growth inhibitory assay; format: cell-based; parameters: key to the marks not given beside the values; details: PDA-CA medium
Escherichia coli TG1 = format: cell-based; parameters: key to the marks not given beside the values; further: key: +++, considerable activity; ++, moderate activity; −−−, no activity

SMILES: CCCCCCCC(=O)OC[C@H]1OC(O[C@@H]2C(N)CC(N)C(O[C@H]3OC(CN)[C@@H](O)[C@H](O)C3O)[C@@H]2O)[C@H](O)[C@H](N)C1O (stereo partly drawn) [K05, 6″-O-octanoylkanamycin A]
- MIC (Fusarium graminearum [1]): > 62.5 µg/mL
- concentration giving no pigmentation (Fusarium graminearum [1]; against Fusarium graminearum): 31.25 µg/mL

SMILES: CCCCCCCCNC[C@H]1OC(O[C@@H]2C(N)CC(N)C(O[C@H]3OC(CN)[C@@H](O)[C@H](O)C3O)[C@@H]2O)[C@H](O)[C@H](N)C1O (stereo partly drawn) [K17, 6″-deoxy-6″-octylaminokanamycin A]
- activity in inhibition zone assay (Rhodotorula pilimanae [2]; against Rhodotorula pilimanae, result in words): Not determined. Only inhibition zone assay and not active against Rhodotorula pilimanae

SMILES: CCCCCCCCSC[C@H]1OC(O[C@@H]2C(N)CC(N)C(O[C@H]3OC(CN)[C@@H](O)[C@H](O)C3O)[C@@H]2O)[C@H](O)[C@H](N)C1O (stereo partly drawn) [K18, 6″-deoxy-6″octylthiokanamycin A]
- MIC (Fusarium graminearum [1]): 15.6 µg/mL (≈ 25.5 µM)
- MIC (Rhodotorula pilimanae [3]): 62.5 µg/mL (≈ 102 µM)

SMILES: Cc1ccc(S(=O)(=O)OC[C@H]2OC(O[C@@H]3C(N)CC(N)C(O[C@H]4OC(CN)[C@@H](O)[C@H](O)C4O)[C@@H]3O)[C@H](O)[C@H](N)C2O)cc1 (stereo partly drawn) [K19, 6″-O-toluenesulfonylkanamycin A]
- inhibition of Rhodotorula (Rhodotorula pilimanae [2]; result in words, assay type (MIC or disk diffusion) not stated): relatively little but nevertheless some inhibition of Rhodotorula

SMILES: CCCCCCCCS(=O)(=O)OCC1OC(OC2C(N)CC(N)C(OC3OC(CN)C(O)C(O)C3O)C2O)C(O)C(N)C1O (stereo not drawn) [K20, 6″-O-octanesulfonylkanamycin A]
- Relative Activity (zone of inhibition diameter) (Fusarium oxysporum): ++
- Relative Activity (zone of inhibition diameter) (Rhodotorula pilimanae [2]): +++
- Relative Activity (zone of inhibition diameter) (Microdochium nivale): +++
- Zone of growth inhibition / fungicidal activity ([4]; K20 alone, 32 μg mL^−1 per disc): no fungicidal activities
- MIC (Escherichia coli B): 250 µg/mL (≈ 378 µM)
- MIC (Micrococcus luteus [5]): 62.5 µg/mL (≈ 94.6 µM)
- Relative Activity (zone of inhibition diameter) (Mucor haemalis): +++
- Relative Activity (zone of inhibition diameter) (Fusarium graminearum [6]): ^b+++
- Relative Activity (zone of inhibition diameter) [7]: ++
- Relative Activity (zone of inhibition diameter) (Ulocladium spp.): +++
- Relative Activity (zone of inhibition diameter) [8]: ++
- MIC, K20 alone ([9]; checkerboard, PDB-CA): 128 µg/mL
- MIC of K20 in combination ([9]; in combination with chlotrimazole): 8 µg/mL
- MIC of K20 in combination ([9]; in combination with fluconazole): 16 µg/mL
- MIC of K20 in combination ([9]; in combination with itraconazole): 32 µg/mL
- MIC of K20 in combination ([9]; in combination with ketoconazole): 32 µg/mL
- MIC of K20 in combination ([9]; in combination with metconazole): 8 µg/mL
- MIC of K20 in combination ([9]; in combination with posaconazole): 16 µg/mL
- MIC of K20 in combination ([9]; in combination with pyraclostrobin): 16 µg/mL
- MIC of K20 in combination ([9]; in combination with tioconazole): 16 µg/mL
- MIC of K20 in combination ([9]; in combination with voriconazole): 4 µg/mL
- Relative Activity (zone of inhibition diameter) [10]: ++
- Relative Activity (zone of inhibition diameter) (Fusarium culmorum): +++
- time-kill effect [11]: the same as the control
- Relative Activity (zone of inhibition diameter) (Rhizopus stolonifer): +++
- Relative Activity (zone of inhibition diameter) (Penicillium spp): ++

SMILES: CCCCCCS(=O)(=O)OC[C@H]1OC(O[C@@H]2C(N)CC(N)C(O[C@H]3OC(CN)[C@@H](O)[C@H](O)C3O)[C@@H]2O)[C@H](O)[C@H](N)C1O (stereo partly drawn) [K22, 6″-O-hexanesulfonylkanamycin A]
- MIC (Fusarium graminearum [1]): 31.3 µg/mL (≈ 49.5 µM)

SMILES: Clc1ccccc1C(c1ccccc1)(c1ccccc1)n1ccnc1 [chlotrimazole]
- MIC, azole alone ([9]; checkerboard, PDB-CA): 1.25 µg/mL
- MIC of azole in combination with K20 ([9]; checkerboard): 0.15 µg/mL
- Effect (drug interaction class by FICI) [9]: synergy
- FICI (Fractional Inhibitory Concentration Index) [9]: 0.18

SMILES: OC(Cn1cncn1)(Cn1cncn1)c1ccc(F)cc1F [fluconazole]
- MIC ([9]; checkerboard, PDB-CA): > 24 µg/mL
- MIC of azole in combination with K20 ([9]; checkerboard): 3 µg/mL
- Effect (drug interaction class by FICI) [9]: synergy
- FICI (Fractional Inhibitory Concentration Index) [9]: 0.18

SMILES: CCC(C)n1ncn(-c2ccc(N3CCN(c4ccc(OCC5COC(Cn6cncn6)(c6ccc(Cl)cc6Cl)O5)cc4)CC3)cc2)c1=O (stereo not drawn) [itraconazole]
- Zone of growth inhibition / fungicidal activity ([4]; ITC alone, 0.5 μg mL^−1 per disc): no fungicidal activities
- decrease in cell viability [12]: 63%
- MIC ([9]; checkerboard, PDB-CA): > 3 µg/mL
- MIC of azole in combination with K20 ([9]; checkerboard): 0.18 µg/mL
- Effect (drug interaction class by FICI) [9]: synergy
- FICI (Fractional Inhibitory Concentration Index) [9]: 0.31

SMILES: NCC1O[C@H](OC2C(N)CC(N)[C@@H](OC3O[C@H](CO)C(O)[C@@H](N)[C@H]3O)[C@H]2O)C(O)[C@@H](O)[C@@H]1O (stereo partly drawn) [kanamycin A]
- MIC (Escherichia coli B; read-out: MIC): 1.95 µg/mL (≈ 4.02 µM)
- MIC (Micrococcus luteus [5]; read-out: MIC): 0.98 µg/mL (≈ 2.02 µM)
- Relative Activity (zone of inhibition diameter) [13]: +++
- Relative Activity (zone of inhibition diameter) (Micrococcus luteus [14]): +++
- Relative Activity (zone of inhibition diameter) (Escherichia coli TG1): +++

SMILES: NC[C@H]1O[C@H](O[C@H]2[C@H](O)[C@@H](O[C@H]3O[C@H](CO)[C@@H](O)[C@H](N)[C@H]3O)[C@H](N)C[C@@H]2N)[C@H](N)[C@@H](O)[C@@H]1O [kanamycin B]
- MIC (Escherichia coli B): 1.95 µg/mL (≈ 4.03 µM)
- MIC (Micrococcus luteus [5]): 0.98 µg/mL (≈ 2.03 µM)

SMILES: CC(=O)N1CCN(c2ccc(OCC3COC(Cn4ccnc4)(c4ccc(Cl)cc4Cl)O3)cc2)CC1 (stereo not drawn) [ketoconazole]
- MIC ([9]; checkerboard, PDB-CA): 24 µg/mL
- MIC of azole in combination with K20 ([9]; checkerboard): 1.5 µg/mL
- Effect (drug interaction class by FICI) [9]: synergy
- FICI (Fractional Inhibitory Concentration Index) [9]: 0.31

SMILES: CC1(C)CCC(Cc2ccc(Cl)cc2)C1(O)Cn1cncn1 (stereo not drawn) [metconazole]
- MIC ([9]; checkerboard, PDB-CA): 2.5 µg/mL
- MIC of azole in combination with K20 ([9]; checkerboard): 0.15 µg/mL
- Effect (drug interaction class by FICI) [9]: synergy
- FICI (Fractional Inhibitory Concentration Index) [9]: 0.12

SMILES: CC[C@@H]([C@H](C)O)n1ncn(-c2ccc(N3CCN(c4ccc(OC[C@@H]5CO[C@@](Cn6cncn6)(c6ccc(F)cc6F)C5)cc4)CC3)cc2)c1=O [posaconazole]
- MIC ([9]; checkerboard, PDB-CA): > 0.75 µg/mL
- MIC of azole in combination with K20 ([9]; checkerboard): 0.09 µg/mL
- Effect (drug interaction class by FICI) [9]: synergy
- FICI (Fractional Inhibitory Concentration Index) [9]: 0.24

SMILES: COC(=O)N(OC)c1ccccc1COc1ccn(-c2ccc(Cl)cc2)n1 [pyraclostrobin]
- MIC ([9]; checkerboard, PDB-CA): 6 µg/mL
- MIC of azole in combination with K20 ([9]; checkerboard): 0.75 µg/mL
- Effect (drug interaction class by FICI) [9]: synergy
- FICI (Fractional Inhibitory Concentration Index) [9]: 0.25

SMILES: Clc1ccc(C(Cn2ccnc2)OCc2ccsc2Cl)c(Cl)c1 (stereo not drawn) [tioconazole]
- MIC ([9]; checkerboard, PDB-CA): 0.25 µg/mL
- MIC of azole in combination with K20 ([9]; checkerboard): 0.03 µg/mL
- Effect (drug interaction class by FICI) [9]: synergy
- FICI (Fractional Inhibitory Concentration Index) [9]: 0.25

SMILES: C[C@@H](c1ncncc1F)[C@](O)(Cn1cncn1)c1ccc(F)cc1F [voriconazole]
- MIC ([9]; checkerboard, PDB-CA): > 1 µg/mL
- MIC of azole in combination with K20 ([9]; checkerboard): 0.125 µg/mL
- Effect (drug interaction class by FICI) [9]: synergy
- FICI (Fractional Inhibitory Concentration Index) [9]: 0.15

Source: patent US9669044B2, “Aminoglycoside and azole compositions and methods” (Utah State University, priority 2010, dated 2017)
